Earlier results in patent publication US20250144122A1, “Scent-Changing Ointment & Method of Making The Same” (priority 2023, published 2025).

Legend:
[1] = topical application, 3.5% gel
[2] = in vivo

SMILES	blood flow remains reduced ([1]; at 10 minutes after application)	reduces blood flow ([1]; within 60 seconds of application)	analgesic effect (pain threshold) [2]
CC1CCC(C(C)C)C(O)C1 (stereo not shown) [menthol, Menthol]	20%	35%	
CC(C)[C@@H]1CC[C@@H](C)C[C@H]1O [(l)-menthol]			able to increase pain threshold
CC1CC[C@H](C(C)C)[C@@H](O)C1 (stereo partly shown) [(d)-menthol]			completely devoid of any analgesic effect
